Measurements published in publication PMC7489893, “A small molecule inhibitor of HER3: a proof-of-concept study” (Biochemical Journal, 2020).
Read-outs that look alike come from different tables or passages of the source.

Key:
[1] = molecular target: T1, HER2 kinase domain (Homo sapiens, UniProt P04626); experiment: biochemical; parameters: in vitro HER2 kinase inhibition assay at the Km for ATP (ThermoFisher); settings: at Km for ATP; read-out: Activity against HER2, IC50
T1 construct: gene ERBB2; kinase domain, ThermoFisher in vitro kinase assay
From the text: Since the readout for HER3 function in cells required HER2 activity, it was critical to confirm HER2 inactivity of these compounds.

[2] = molecular target: T2, HER3 (Homo sapiens, UniProt P21860); experiment: biochemical; parameters: gene ERBB3; HER3 kinase domain (residues G684-D1020); differential scanning fluorimetry with SYPRO Orange, shift in HER3 kinase domain Tm
T2 sequence (P21860 684-1020): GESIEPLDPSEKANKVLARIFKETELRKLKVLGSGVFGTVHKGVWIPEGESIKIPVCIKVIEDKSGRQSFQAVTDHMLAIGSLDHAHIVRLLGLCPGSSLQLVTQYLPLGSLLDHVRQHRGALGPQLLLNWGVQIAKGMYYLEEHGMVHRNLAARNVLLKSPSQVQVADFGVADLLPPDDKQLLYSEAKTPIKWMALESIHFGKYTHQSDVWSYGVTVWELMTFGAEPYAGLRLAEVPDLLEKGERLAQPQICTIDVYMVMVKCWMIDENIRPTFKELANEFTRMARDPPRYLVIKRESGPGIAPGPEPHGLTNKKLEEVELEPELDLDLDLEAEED
Method: Thermal shift assays were performed using a QuantStudio7 Flex Real-Time PCR instrument (Applied Biosystems, ThermoFischer Scientific) scanning from 15°C to 75°C in 0.5°C increments every 30 s after an initial incubation at 15°C for 1 min. Fluorescence was measured at the end of each 30 s period with an excitation wavelength of 470 nm and an emission wavelength of 620 nm. HER3 and HER2 kinase domain recombinant proteins were diluted in 50 mM Hepes pH 7.5, 150 mM NaCl, 5% glycerol and 1 mM DTT to a concentration of 1.5 μM and then incubated with the indicated concentration of compounds in a total reaction volume of 10 μl, with a final concentration of 2.5X SYPRO Orange (ThermoFisher Scientific) as fluorescence probe. […] Hit compounds stabilising HER3 were then evaluated for their relative binding affinity in a dose–response thermal shift assay at 1, 3, 10 and 30 μM (Supplementary Figure S2C). […] The proof-of-concept compound was confirmed as a HER3 binder inducing a shift in HER3 Tm of over 3°C with the dose–response indicating an estimated IC50 of 4 μM (Figure 1D and Supplementary Table S2). Near neighbours of those 109 hits were selected and 663 new compounds were screened in duplicate for their relative potency at 1, 3, 10 and 30 μM by thermal shift assay. From those, 446 compounds passed the selection criteria, i.e. induced shift in HER3 Tm > 3°C below 10 μM (data not shown). Figure 1. A differential scanning fluorimetry (DSF) assay compound screen identifies 428 HER3-preferential binders from a 107 008 compound library. (A) Overview of the screening strategy and hit rate for each step of the screening cascade. […] ApoHER3 (HER3 kinase domain with no ligand) was used as a control for all DSF analyses (mean of ApoHER3 Tm across the plates set at ΔTm = 0°C is indicated by the dash green line) and ΔTm values were calculated for each pool of compounds tested at 30 μM each (N = 1). Cut-off values of ΔTm>3°C and ΔTm < −5°C were used to designate hits (shown as dashed pink lines). The pool of compounds containing proof-of-concept compound AC3573 is circled. Gaps indicate the rare plate failures (three plates). Compounds from these plates were retested during the deconvolution screen. (C) Correlation of shift in HER3 Tm value induced by deconvoluted pool compounds tested at 30 μM between the two repeats of deconvolution screening. AC3573 and its three pool compounds are highlighted. (D) Dose-dependent analysis of thermal shifts induced by AC3573 compound tested at 1, 3, 10 and 30 μM in the HER3 potency screen. The change in HER3 Tm value (ΔTm), compared with ApoHER3 control, is reported as mean ± SD from N = 4 independent experiments. […]

[3] = molecular target: T3, HER2 (Homo sapiens, UniProt P04626, M706A/M712L/Q711L); experiment: biochemical; parameters: differential scanning fluorimetry with SYPRO Orange, shift in HER2 kinase domain Tm (counter screen); settings: counter screen
T3 construct: gene ERBB2; HER2 kinase domain (S703-G1029)
Method: Thermal shift assays were performed using a QuantStudio7 Flex Real-Time PCR instrument (Applied Biosystems, ThermoFischer Scientific) scanning from 15°C to 75°C in 0.5°C increments every 30 s after an initial incubation at 15°C for 1 min. Fluorescence was measured at the end of each 30 s period with an excitation wavelength of 470 nm and an emission wavelength of 620 nm. HER3 and HER2 kinase domain recombinant proteins were diluted in 50 mM Hepes pH 7.5, 150 mM NaCl, 5% glycerol and 1 mM DTT to a concentration of 1.5 μM and then incubated with the indicated concentration of compounds in a total reaction volume of 10 μl, with a final concentration of 2.5X SYPRO Orange (ThermoFisher Scientific) as fluorescence probe. […] We sought to identify compounds binding specifically to HER3. Since HER2 and HER3 are highly homologous EGFR family members, we took forward the 555 compounds identified as stabilising HER3, to be counter screened for HER2 binding. […] Compounds binding to HER2, i.e. inducing a shift in HER2 Tm over 2°C (3×SD) compared with the DMSO neutral control were disregarded (Supplementary Figure S2D). […] A differential scanning fluorimetry (DSF) assay compound screen identifies 428 HER3-preferential binders from a 107 008 compound library. (A) Overview of the screening strategy and hit rate for each step of the screening cascade. […] ApoHER3 (HER3 kinase domain with no ligand) was used as a control for all DSF analyses (mean of ApoHER3 Tm across the plates set at ΔTm = 0°C is indicated by the dash green line) and ΔTm values were calculated for each pool of compounds tested at 30 μM each (N = 1). Cut-off values of ΔTm>3°C and ΔTm < −5°C were used to designate hits (shown as dashed pink lines). The pool of compounds containing proof-of-concept compound AC3573 is circled. Gaps indicate the rare plate failures (three plates). Compounds from these plates were retested during the deconvolution screen. (C) Correlation of shift in HER3 Tm value induced by deconvoluted pool compounds tested at 30 μM between the two repeats of deconvolution screening. AC3573 and its three pool compounds are highlighted. (D) Dose-dependent analysis of thermal shifts induced by AC3573 compound tested at 1, 3, 10 and 30 μM in the HER3 potency screen. The change in HER3 Tm value (ΔTm), compared with ApoHER3 control, is reported as mean ± SD from N = 4 independent experiments. Representative thermal denaturation profiles of recombinant HER3 kinase domain, in the presence of 0.3% DMSO (Apo control), ATP/MgCl2 (ATP control) or AC3573 tested at 1, 3, 10 and 30 μM. (E) Dose-dependent analysis of thermal shifts induced by AC3573 compound tested at 1, 3, 10 and 30 μM in the HER2 counter screen. […]

[4] = molecular target: T2, HER3; experiment: DSF dose-response thermal shift; HDX-MS binding site mapping; parameters: gene ERBB3
[5] = molecular target: T2, HER3; experiment: biochemical; parameters: gene ERBB3; HER3 kinase domain (residues G684-D1020); differential scanning fluorimetry with SYPRO Orange, HER3 Tm shift, single-compound deconvolution screen; settings: read-out: ΔTm (°C) HER3 deconvolution screen
Method: Thermal shift assays were performed using a QuantStudio7 Flex Real-Time PCR instrument (Applied Biosystems, ThermoFischer Scientific) scanning from 15°C to 75°C in 0.5°C increments every 30 s after an initial incubation at 15°C for 1 min. Fluorescence was measured at the end of each 30 s period with an excitation wavelength of 470 nm and an emission wavelength of 620 nm. HER3 and HER2 kinase domain recombinant proteins were diluted in 50 mM Hepes pH 7.5, 150 mM NaCl, 5% glycerol and 1 mM DTT to a concentration of 1.5 μM and then incubated with the indicated concentration of compounds in a total reaction volume of 10 μl, with a final concentration of 2.5X SYPRO Orange (ThermoFisher Scientific) as fluorescence probe. […] Having established a robust screening platform, a total of 107 008 small molecule compounds were screened as mixtures of four compounds per well (a total of 26 752 wells) at 30 μM each in a primary library screen. […] In the second step of screening, hit pools of compounds were arrayed as individual compounds and 3119 compounds (2835 hits plus 284 compounds from failed wells from the primary screen) were assessed at 30 μM, using the same thermal shift assay settings as for the primary screen (0.3% DMSO as neutral controls reflecting the single compound use, 200 μM ATP/10 mM MgCl2 as positive controls) applying again a cut-off value of ΔTm > 3°C (Figure 1C). […]

[6] = read-out: ΔTm (°C) HER3 potency screen

- IC50 [1]: > 10 µM
- ΔTm at 3 µM ([2]; 3 uM, potency screen): 1.27 ± 0.51 °C
- ΔTm at 30 µM ([2]; 30 uM, potency screen): 3.2 ± 0.24 °C
- ΔTm at 1 µM [2, 6]: -1.34 ± 0.48 °C
- ΔTm at 10 µM [2, 6]: 3.28 ± 0.62 °C
- ΔTm at 1 µM ([3]; 1 uM): -0.75 ± 0.18 °C
- ΔTm at 3 µM ([3]; 3 uM): 0.48 ± 0.52 °C
- ΔTm at 10 µM ([3]; 10 uM): 1.56 ± 0.26 °C
- ΔTm at 30 µM ([3]; 30 uM): 1.95 ± 0.25 °C
- IC50 [4]: ~4 µM
- ΔTm at 30 µM [5]: 3.65 ± 0.25 °C
Structure (SMILES): NS(=O)(=O)c1cccc(Nc2cc(-c3c[nH]c4ccccc34)ncn2)c1 [AC3573]
